This data set deals with human primary macrophages. Put plainly: IL-10 release measured in the same supernatant (additional cytokine measurements). It is filed as cell-based. The following applies: effect of Ad-shRNA on IL-10 release; supernatant of on-target assay, macrophages triggered with IgG-coated beads; symbols not defined. How it is done:
20 μL of supernatant was used in a TNFα readout assay (Meso Scale Discovery, (MSD), Gaithersburg, Md.). The measurements were performed according to manufacturer's instructions. 20 μL of sample solution were transferred by Tecan384 head on a Tecan freedom station to wells of a 384 well TNFα MSD readout plate(Meso Scale Discovery Catalog #K211BHB-6). A calibrator curve using calibrator from MSD was created using a multichannel pipette. The calibrator curve typically started at 10 ng/mL followed by 6 steps of a 3-fold dilution with a final volume of 10 μL. Plates were sealed and incubated for 2 hours on a shaking platform (set at ˜100 rounds per minute) at room temperature. Detection antibody (1.0 μg/mL) was added to the wells (10 μL for the calibrator and 20 μL for the samples) using a repetitive multichannel. Plates were sealed and incubated overnight at room temperature on a shaking platform (set at ˜100 rounds per minute). The plates were washed 3 times with PBS+0.05% Tween-20 using a Tecan washer (TECAN type, PW384). 35 μl of 2× Read Buffer T was added to each well using a multidrop. After addition of Read Buffer, the plates were read on an MSD SI6000 reader.
For the measurements of additional cytokines, such as IL-10, the supernatants were transferred using the TECAN Freedom with a TEMO-384 head. The cytokines were measured using 384 well plates purchased at Meso Scale Discovery and the methodology used is the same as described in Example 5. Hits were prioritized based on effects on IL-10 release.
In an shRNA screen there is the possibility that the observed effects are due to off-target effects: the shRNA knock down construct has an effect on expression of a different mRNA than the intended mRNA. To exclude possible off-target effects by the knockdown constructs the following “on-target” analysis was followed. For each target, the original Ad-shRNA plus 5 extra Ad-shRNA constructs against the same target were tested in the primary screening assay. If at least two independent shRNA sequences (including original confirmed drug targetAd-shRNA) give the same effect in one donor, the probability this is due to off target shRNA effects is negligible and the effect is declared “on-target”. For the on-target assay, the methods similar to the screen and rescreen were used as described in Examples 5 and 6. The TNFα release assay was performed as per Rescreen (see Example 6) except that the negative control viruses (Luc_v13) were repropagated alongside the on-target viruses. In total, 40 targets were taken along in the on-target assay, and for 15 targets multiple shRNA came up as a hit. In addition, IL-10 release was measured in the same supernatant as described in Examples 5 and 7. Table 3 indicates the effects of the shRNAs on the IL-10 release.

For the substance “AGACATGGATGGGAAAGAC: Ad-shRNA knock-down construct, KD target sequence against CBR3 (the letters are possibly those of the target site)”, the IL-10 sparing entry is on record as “✓”.

“ATGACCCTACAGGTTTACC: Ad-shRNA knock-down construct, KD target sequence against NEK10”: the IL-10 sparing entry was “✓”.

Turning to “CATACTGGAGCCTGTAACC: Ad-shRNA knock-down construct, KD target sequence against TNFRSF10C”, the IL-10 sparing result is on record as “✓”.

For the substance “CCAATGGTTACATGGCTCC: Ad-shRNA knock-down construct, KD target sequence against GRK7”, the IL-10 sparing result was “✓”.

For the substance “CTCAGGAAGGTCTTTCCAC: Ad-shRNA knock-down construct, KD target sequence against SNF1LK”, the IL-10 sparing result is given as “✓”.

Turning to “CTTGTGCGATGCTTTGAAC: Ad-shRNA knock-down construct, KD target sequence against ATIC”, the IL-10 sparing result is listed as “✓”.

With “CTTGTGTGCCAGTGGATGC: Ad-shRNA knock-down construct, KD target sequence against BRS3”, the IL-10 sparing entry was “✓”.

Take “GGTGTCTTACTGCTGACTC: Ad-shRNA knock-down construct, target sequence against TNFRSF11A (Table 3 only, no SEQ ID NO) (the letters are possibly those of the target site)”: the IL-10 sparing entry was “✓”.

As to “GTTCTGCTGTGCATCTGCC: Ad-shRNA knock-down construct, KD target sequence against OPRL1”, the IL-10 sparing entry is given as “✓”.

For “TATGCTGTAGGCTGCCTGC: Ad-shRNA knock-down construct, KD target sequence against PIK3CB (listed as Homo sapiens)”, the IL-10 sparing entry was “✓”.

Turning to “TGTCTACACCACTGCTGCC: Ad-shRNA knock-down construct, KD target sequence against RYR1 (the letters are possibly those of the target site; listed as Homo sapiens)”, the IL-10 sparing entry is “✓”.

The values are drawn from US20120004160A1, “METHODS FOR IDENTIFYING AND COMPOUNDS USEFUL FOR THE DIAGNOSIS AND TREATMENT OF DISEASES INVOLVING INFLAMMATION” (Glaxo Group Ltd., priority 2009, published 2012).
